Active and inactive are the calls of the source. The calls are words filed in the database; no cut-off is given here.

The target in this assay is T1, Enoyl-acyl-carrier protein reductase (Plasmodium falciparum) (UniProt Q965D5).
T1 sequence (whole entry): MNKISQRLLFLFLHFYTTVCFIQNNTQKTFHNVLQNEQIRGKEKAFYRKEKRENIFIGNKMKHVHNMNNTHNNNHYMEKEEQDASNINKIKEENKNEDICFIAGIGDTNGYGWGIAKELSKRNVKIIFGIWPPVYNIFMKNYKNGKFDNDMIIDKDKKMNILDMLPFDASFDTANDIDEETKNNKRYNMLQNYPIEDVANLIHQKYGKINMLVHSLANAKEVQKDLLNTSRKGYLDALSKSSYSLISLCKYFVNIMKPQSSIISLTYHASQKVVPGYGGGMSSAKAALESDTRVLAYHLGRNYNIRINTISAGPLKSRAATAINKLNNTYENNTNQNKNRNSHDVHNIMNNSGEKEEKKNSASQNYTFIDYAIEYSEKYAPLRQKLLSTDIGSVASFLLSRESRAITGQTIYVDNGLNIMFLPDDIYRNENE
Description: Inhibition of Plasmodium falciparum FabI at 100 uM.

For `O=c1cc(-c2ccccc2)oc2ccc(O)cc12`, the inhibition entry was “inactive”.
The same measure for `COc1ccc(-c2cc(=O)c3c(O)c(O)c(OC)cc3o2)cc1`: “inactive”; for `COc1cc2c(c(O)c1OC)C(=O)C[C@@H](c1ccc(O)cc1)O2`: “inactive”.

The values are drawn from ChEMBL document CHEMBL1208779, “Integrated ligand and structure based studies of flavonoids as fatty acid biosynthesis inhibitors of Plasmodium falciparum” (Bioorg Med Chem Lett, 2010).
